Measurements from US20070276025A1, “Indirubin-Type Compounds, Compositions, and Methods for Their Use” (priority 2003, published 2007).

Legend:
[1] = target: T1, AhR (Mus musculus, UniProt P30561); settings: read-out: EC50 AhR (hepatoma cell line); Table 4; EGFP at 24 hours
T1 sequence (P30561 1-848): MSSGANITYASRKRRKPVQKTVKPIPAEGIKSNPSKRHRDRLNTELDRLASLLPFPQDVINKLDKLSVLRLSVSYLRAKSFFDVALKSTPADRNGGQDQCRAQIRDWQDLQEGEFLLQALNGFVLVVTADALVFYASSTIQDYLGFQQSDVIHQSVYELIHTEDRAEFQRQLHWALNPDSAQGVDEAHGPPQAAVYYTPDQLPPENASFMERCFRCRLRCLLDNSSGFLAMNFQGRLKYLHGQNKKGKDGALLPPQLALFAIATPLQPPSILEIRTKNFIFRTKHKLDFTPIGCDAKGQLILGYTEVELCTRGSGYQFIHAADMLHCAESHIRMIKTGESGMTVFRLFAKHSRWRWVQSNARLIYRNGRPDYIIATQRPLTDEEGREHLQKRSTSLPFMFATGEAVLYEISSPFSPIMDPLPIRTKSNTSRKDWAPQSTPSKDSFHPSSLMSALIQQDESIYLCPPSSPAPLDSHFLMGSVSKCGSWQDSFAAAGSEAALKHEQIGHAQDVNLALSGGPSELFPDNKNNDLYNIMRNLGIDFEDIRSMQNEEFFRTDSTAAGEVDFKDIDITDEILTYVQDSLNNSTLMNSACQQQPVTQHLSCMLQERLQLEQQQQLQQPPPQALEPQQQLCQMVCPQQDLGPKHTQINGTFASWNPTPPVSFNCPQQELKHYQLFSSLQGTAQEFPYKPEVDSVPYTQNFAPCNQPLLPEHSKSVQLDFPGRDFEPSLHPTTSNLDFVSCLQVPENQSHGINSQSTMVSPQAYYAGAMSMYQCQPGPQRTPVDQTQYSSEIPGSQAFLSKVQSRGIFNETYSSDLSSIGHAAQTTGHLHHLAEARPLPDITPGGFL

[2] = Solubility (qualitative remark); settings: relative to parent indirubins / 3′-oximes
[3] = target: protein kinase C β2 (Homo sapiens, UniProt P05771); assay: protein kinase C β2 assay; settings: read-out: IC50 protein kinase C β2; Table 2, 15 μM ATP
[4] = target: MAPKK; assay: MAPKK kinase assay; settings: read-out: IC50 MAPKK; Table 2, 15 μM ATP
[5] = target: erk2 (Homo sapiens, UniProt P28482); assay: erk2 kinase assay; settings: read-out: IC50 erk2; Table 2, 15 μM ATP
[6] = target: T2, protein kinase C ζ (Homo sapiens, UniProt Q05513); assay: protein kinase C ζ assay; settings: read-out: IC50 protein kinase C ζ; Table 2, 15 μM ATP
T2 sequence (Q05513 1-592): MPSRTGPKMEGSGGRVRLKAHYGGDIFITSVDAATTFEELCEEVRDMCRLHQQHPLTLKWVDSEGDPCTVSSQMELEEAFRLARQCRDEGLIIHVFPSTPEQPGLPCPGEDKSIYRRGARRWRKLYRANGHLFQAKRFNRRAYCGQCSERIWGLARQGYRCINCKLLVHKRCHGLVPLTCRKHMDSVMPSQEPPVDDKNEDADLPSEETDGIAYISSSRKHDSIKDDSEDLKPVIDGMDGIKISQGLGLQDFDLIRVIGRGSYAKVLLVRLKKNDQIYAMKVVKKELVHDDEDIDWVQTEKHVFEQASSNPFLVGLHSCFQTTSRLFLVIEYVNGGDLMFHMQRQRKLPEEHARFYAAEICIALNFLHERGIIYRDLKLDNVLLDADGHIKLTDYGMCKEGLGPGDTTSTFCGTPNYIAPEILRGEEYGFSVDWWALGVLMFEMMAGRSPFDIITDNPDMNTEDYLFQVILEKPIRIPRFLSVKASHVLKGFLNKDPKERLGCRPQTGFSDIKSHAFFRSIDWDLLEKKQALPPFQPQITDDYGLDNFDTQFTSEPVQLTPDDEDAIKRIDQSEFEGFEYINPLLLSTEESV

[7] = target: protein kinase C δ (Homo sapiens, UniProt Q05655); assay: protein kinase C δ assay; settings: read-out: IC50 protein kinase C δ; Table 2, 15 μM ATP
[8] = target: erk1 (Homo sapiens, UniProt P27361); assay: erk1 kinase assay; settings: read-out: IC50 erk1; Table 2, 15 μM ATP
[9] = target: protein kinase C α (Homo sapiens, UniProt P17252); assay: protein kinase C α assay; settings: read-out: IC50 protein kinase C α; Table 2, 15 μM ATP
[10] = target: T3, protein kinase C ε (Homo sapiens, UniProt Q02156); assay: protein kinase C ε assay; settings: read-out: IC50 protein kinase C ε; Table 2, 15 μM ATP
T3 sequence (Q02156 1-737): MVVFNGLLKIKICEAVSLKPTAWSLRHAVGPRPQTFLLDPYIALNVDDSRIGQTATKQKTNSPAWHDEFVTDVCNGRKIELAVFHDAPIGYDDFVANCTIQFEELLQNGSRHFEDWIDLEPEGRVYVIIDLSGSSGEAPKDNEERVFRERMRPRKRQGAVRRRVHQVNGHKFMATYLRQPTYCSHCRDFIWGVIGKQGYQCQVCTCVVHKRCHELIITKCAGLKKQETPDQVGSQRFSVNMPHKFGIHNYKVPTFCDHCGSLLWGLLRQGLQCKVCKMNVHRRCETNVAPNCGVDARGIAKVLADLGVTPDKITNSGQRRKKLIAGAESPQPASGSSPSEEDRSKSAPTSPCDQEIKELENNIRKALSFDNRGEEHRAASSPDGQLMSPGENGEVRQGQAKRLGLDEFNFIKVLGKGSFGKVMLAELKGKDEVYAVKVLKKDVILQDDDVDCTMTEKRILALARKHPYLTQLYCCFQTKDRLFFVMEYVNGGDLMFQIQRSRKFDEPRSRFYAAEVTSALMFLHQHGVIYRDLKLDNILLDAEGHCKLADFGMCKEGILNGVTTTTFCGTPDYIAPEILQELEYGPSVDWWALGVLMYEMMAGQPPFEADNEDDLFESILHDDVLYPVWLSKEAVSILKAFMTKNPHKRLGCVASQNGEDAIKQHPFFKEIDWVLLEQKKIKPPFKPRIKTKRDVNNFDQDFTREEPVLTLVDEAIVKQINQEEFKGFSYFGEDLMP

Chain of erk1 (P27361 whole entry, species assumed): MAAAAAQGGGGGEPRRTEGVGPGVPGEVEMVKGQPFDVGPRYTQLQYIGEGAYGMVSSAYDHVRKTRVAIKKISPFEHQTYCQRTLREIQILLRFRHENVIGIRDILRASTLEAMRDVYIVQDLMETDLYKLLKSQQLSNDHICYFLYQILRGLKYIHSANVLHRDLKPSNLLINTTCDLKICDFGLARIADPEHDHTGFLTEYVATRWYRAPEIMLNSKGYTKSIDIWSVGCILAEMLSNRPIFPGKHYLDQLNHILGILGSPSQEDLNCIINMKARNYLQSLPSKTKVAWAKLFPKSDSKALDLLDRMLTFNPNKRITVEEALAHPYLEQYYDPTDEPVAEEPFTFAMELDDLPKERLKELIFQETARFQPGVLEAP
Chain of erk2 (P28482 whole entry, species assumed): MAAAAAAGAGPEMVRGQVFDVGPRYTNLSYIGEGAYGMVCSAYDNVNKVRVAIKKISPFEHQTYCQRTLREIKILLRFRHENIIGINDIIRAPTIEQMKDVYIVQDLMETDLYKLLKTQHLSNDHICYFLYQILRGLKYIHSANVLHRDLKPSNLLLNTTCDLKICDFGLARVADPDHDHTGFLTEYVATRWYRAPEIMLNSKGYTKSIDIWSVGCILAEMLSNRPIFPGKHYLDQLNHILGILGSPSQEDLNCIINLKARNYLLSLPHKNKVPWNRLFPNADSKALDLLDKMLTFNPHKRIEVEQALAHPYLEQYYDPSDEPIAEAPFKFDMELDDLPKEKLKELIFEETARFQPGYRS
Chain of protein kinase C δ (Q05655 whole entry): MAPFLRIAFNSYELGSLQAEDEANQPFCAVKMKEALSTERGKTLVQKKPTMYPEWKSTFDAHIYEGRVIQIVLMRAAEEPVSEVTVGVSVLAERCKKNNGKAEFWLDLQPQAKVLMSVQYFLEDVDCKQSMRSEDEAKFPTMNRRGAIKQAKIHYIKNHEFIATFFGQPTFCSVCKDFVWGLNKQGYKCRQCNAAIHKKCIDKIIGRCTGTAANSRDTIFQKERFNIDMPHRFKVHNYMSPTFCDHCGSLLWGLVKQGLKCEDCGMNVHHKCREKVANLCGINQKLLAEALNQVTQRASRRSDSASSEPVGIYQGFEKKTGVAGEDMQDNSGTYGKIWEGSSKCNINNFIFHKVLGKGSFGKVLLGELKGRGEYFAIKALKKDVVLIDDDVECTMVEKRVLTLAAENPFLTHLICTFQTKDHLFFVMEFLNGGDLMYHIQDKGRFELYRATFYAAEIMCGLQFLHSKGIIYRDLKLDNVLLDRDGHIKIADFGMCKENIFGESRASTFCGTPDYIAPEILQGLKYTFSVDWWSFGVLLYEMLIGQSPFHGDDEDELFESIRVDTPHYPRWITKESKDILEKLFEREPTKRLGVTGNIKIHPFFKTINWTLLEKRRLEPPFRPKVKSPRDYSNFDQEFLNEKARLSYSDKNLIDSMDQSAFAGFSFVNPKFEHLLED
Chain of protein kinase C β2 (P05771 1-673 isoform P05771-2): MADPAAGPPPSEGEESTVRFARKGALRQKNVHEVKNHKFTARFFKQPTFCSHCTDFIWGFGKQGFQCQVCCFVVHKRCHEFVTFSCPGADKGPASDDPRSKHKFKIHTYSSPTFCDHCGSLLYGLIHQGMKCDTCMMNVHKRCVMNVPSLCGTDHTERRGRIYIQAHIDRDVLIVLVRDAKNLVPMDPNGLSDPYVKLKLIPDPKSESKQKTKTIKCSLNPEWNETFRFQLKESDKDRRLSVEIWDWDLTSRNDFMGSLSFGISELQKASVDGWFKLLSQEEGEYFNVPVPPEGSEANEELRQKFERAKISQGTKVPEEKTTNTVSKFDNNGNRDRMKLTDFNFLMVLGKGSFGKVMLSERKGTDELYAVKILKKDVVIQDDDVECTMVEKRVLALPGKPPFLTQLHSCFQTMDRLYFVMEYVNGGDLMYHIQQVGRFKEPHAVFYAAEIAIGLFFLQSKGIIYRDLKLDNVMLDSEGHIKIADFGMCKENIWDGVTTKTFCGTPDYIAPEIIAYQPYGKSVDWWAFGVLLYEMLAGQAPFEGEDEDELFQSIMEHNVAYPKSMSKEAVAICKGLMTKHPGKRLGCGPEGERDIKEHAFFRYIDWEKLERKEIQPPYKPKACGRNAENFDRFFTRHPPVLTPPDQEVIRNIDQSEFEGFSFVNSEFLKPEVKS

Compound | EC50 [1] [µM] | solubility (in words) [2] | IC50 [3] [µM] | IC50 [4] [µM] | IC50 [5] [µM] | IC50 [6] [µM] | IC50 [7] [µM] | IC50 [8] [µM] | IC50 [9] [µM] | IC50 [10] [µM]
O=C1Nc2ccccc2/C1=C1/Nc2ccccc2/C1=N\O [7h, indirubin-3′-oxime] | 0.72 | increased solubility | – | – | – | – | – | – | – | –
CC(=O)ON=C1C(=C2C(=O)Nc3cc(Br)ccc32)Nc2ccccc21 [8a, 6-Bromoindirubin-3′-acetoxime] | 0.16 | less soluble | > 10 | > 10 | > 10 | > 10 | > 10 | > 10 | > 10 | > 10
CON=C1C(=C2C(=O)Nc3cc(Br)ccc32)Nc2ccccc21 [9a, 6-Bromoindirubin-3′-methoxime] | 0.03 | less soluble | > 10 | > 10 | > 10 | > 10 | > 10 | > 10 | > 10 | > 10
